Measured values taken from patent US20220211681A1, “COMPOSITIONS AND METHODS FOR PREVENTING INFLAMMATORY CONDITIONS” (Trustees of Tufts College, priority 2019, published 2022).

What was measured:
[1] = system: β-catenin; assay: Western blot of nuclear β-catenin in colonic mucosa (Wnt signaling); assay type: in vivo, FVB mice; conditions: colonic mucosa nuclear fraction, p<0.03
Text: (§1) Each lane contained colonic mucosa collected from two individual mice that were pooled for immunoblot analysis (n=6). Data are representative of two independent experiments. Band intensity was normalized to Lamin B1 (nuclear fraction) or β-actin (whole tissue lysate) and measured by Quantity One 1-D Analysis Software (Bio-Rad). Data are shown as the mean±SE. Multiple comparisons with Hochberg method were employed to control the False Discovery Rate. Different superscript letters in the bar charts indicate significant differences (p<0.05) by one-way analysis of variance (ANOVA) with Tukey's test.
(§2) Western blot analyses: The nuclear and cytoplasmic fractions were prepared using the Nuclear Extraction Kit (Abeam) according to the manufacturer's instructions and subjected to Western blot analysis. Protein concentrations were determined using the BCA method. Briefly, equal amount of proteins (50 μg) were resolved over 4-12% SDS-polyacrylamide gel electrophoresis and transferred to nitrocellulose membranes. […] Band intensity was normalized to Lamin B1 (nuclear fraction) and measured by Quantity One 1-D Analysis Software (Bio-Rad, Hercules, Calif., USA).

[2] = system: calprotectin; assay: Fecal calprotectin by Mouse S100A8/S100A9 Heterodimer DuoSet ELISA; assay type: in vivo, FVB mice; conditions: vs obese control
Text: (§3) Frozen fecal samples obtained in the colon upon euthanasia and then measured by Mouse S100A8/S100A9 Heterodimer DuoSet ELISA according to manufacturer's instructions (R&D Systems, Minneapolis, Minn.) and normalized by protein concentrations. Data are shown as the mean±SE, Different superscript letters in the bar charts indicate significant differences (p<0.05) by one-way analysis of variance (ANOVA) with Tukey's test.
(§4) Determination of pro-inflammatory cytokines in plasma and calprotectin in feces: Plasma samples were then used for determination IL-1β, IL-6, and TNT-α concentrations by V-PLEX Proinflammatory Panel 1 (mouse) Kit on a chemiluminescence platform (MesoScale Discovery (MSD), Rockville, Md., USA) according to the manufacturer's instructions. For fecal calprotectin measures, frozen fecal samples obtained in the colon upon euthanasia were lysed in ice-cold PBS containing 1% BSA, 0.05% Tween20 and protease inhibitor. Protein concentrations were determined using the BCA method. Fecal calprotectin levels were measured by Mouse S100A8/S100A9 Heterodimer DuoSet ELISA according to manufacturer's instructions (R&D Systems, Minneapolis, Minn.) and normalized by protein concentrations.

[3] = system: colonic tumors; assay: Colonic tumorigenesis in HFD-fed, AOM-treated FVB mice; assay type: in vivo
Text: Animals, diet and dosage information: The animal protocol was approved by the Institutional Animal Care and Use Committee of Tufts University (42015-155). Male FVB mice (4 weeks old) were obtained from the Jackson Laboratory (Bar Harbor, Me., USA), and were given free access to food (AIN-93G) and water for one week. The high-fat diet (HFD, D12450B) and low-fat diet (LFD, D12492) contained 60% and 10% of their calories as lard, respectively (Research Diets, diet details: Supplementary Tables 1, 2). […] One week after the sixth AOM injection, mice were randomized to receive 1 of 5 experimental diets: 1) LFD control, 2) […], 3) HFD containing 0.2% CUR (wt %), […], as pyridoxine HO), and 5) HFD containing both agents […]. There were 21 mice in each group. Body composition was determined by Echo-900 MRI (Houston, Tex., USA) at 21 weeks after arrival. All mice were sacrificed by isoflurane asphyxiation at 22 weeks after arrival. The liver and spleen were collected and weighed.
The dose of CUR (0.2 wt %) used in this study is equivalent to approximately 1 g/day for human dietary intake in a 60 kg adult based on equivalent surface area dosage conversion method^(30). The dose of B6 used is at 4-times the basal requirement (supplemented level) for mice. […] The colons were excised, opened longitudinally, rinsed with ice cold PBS containing protease and phosphatase inhibitors (pH 7.4) and carefully inspected under a dissection microscope. The number and size of tumors in the colons were recorded. The sizes of tumors were determined by the following formula: tumor volume (mm^3)=L×W×[(L+W)/2], where L is the length and W is the width of the tumors. Tumors and one 2-3 mm length piece of mid-colon from each mouse were fixed in 10% buffered formalin (pH 7.4) for 24 h for further histopathologic and immunohistochemical (IHC) analysis. The opened colon, spread out on a glass plate sitting atop crushed ice, was then gently scraped using glass microscope slides and the mucosa thus obtained was stored at −80° C. for future analyses. The pathology of the colonic tumors was characterized by a rodent histopathologist at the Harvard Rodent Histopathology Core (Boston, Mass., USA) who was blinded to the diet groups, and the tumors were graded as either non-neoplastic, adenomas or invasive cancers. The tumor data reported below includes only those confirmed to be either adenomas or cancers.
Statistical analyses: Data are presented as means±standard error (SE) for the indicated number of independently performed experiments. All statistical analyses were performed using SAS Version 9.3 (SAS Institute, Cary, N.C., USA). […] The tumor incidence was statistically calculated using the chi-square test. […]

[4] = system: IL-6; assay: Plasma IL-6 by V-PLEX Proinflammatory Panel 1 (mouse) Kit; assay type: in vivo, FVB mice; conditions: vs obese control; combination p=0.07
Text: as §3, §4

[5] = system: PI3K; assay: Western blot of p-PI3K/PI3K in colonic mucosa; assay type: in vivo, FVB mice
Text: as §1, §2

SMILES: Cc1ncc(CO)c(CO)c1O.Cl [B6, pyridoxine hydrochloride]
- Level of nuclear β-catenin in comparison to the obese control (in words) [1]: reduced level of nuclear β-catenin
- Suppression of fecal calprotectin (in words) [2]: did not cause a significant suppression
- Tumor incidence ([3]; HFD-fed, AOM-treated FVB mice, agent in diet): 59%
- Tumor multiplicity (Tumors per mouse) ([3]; HFD-fed, AOM-treated FVB mice, agent in diet (CUR 0.2% w/w, B6 24 mg/kg), mean ± SE): 0.95 ± 0.22^ab
- Tumor burden (Total volume of tumors per mouse, mm^3) ([3]; HFD-fed, AOM-treated FVB mice, agent in diet, mean ± SE): 17.19 ± 7.38^ab mm^3
- Suppression of colorectal tumorigenesis (in words) ([3]; vs HFD obese control): neither CUR nor B6 alone was sufficient to suppress colorectal tumorigenesis
- Plasma IL-6 level (in words) [4]: non-significant reduction
- Suppression of PI3K activation (in words) [5]: did not cause a significant suppression
